Assay results as given in publication PMC3001897, “High-Throughput Chemical Screen Identifies a Novel Potent Modulator of Cellular Circadian Rhythms and Reveals CKIα as a Clock Regulatory Kinase” (PLoS Biology, 2010).
“And” between values parts separate entries of the source, which are not always exact repeats. Identical values can stand only once.

Columns and labels:
[1] = system: CKIα- and CKIδ-accelerated degradation of PER1; assay: Flag-tagged PER1 degradation by Western blot in HEK293T cells; format: cell-based; conditions: 24 h
CDK7 = target: T1, CDK7 (Homo sapiens, UniProt P50613); assay: In vitro kinase assay, CDK7; format: biochemical; conditions: ATP 5 µM; from Figure 2E
T1 construct: purchased Millipore 14-476
T1 sequence (P50613 whole entry): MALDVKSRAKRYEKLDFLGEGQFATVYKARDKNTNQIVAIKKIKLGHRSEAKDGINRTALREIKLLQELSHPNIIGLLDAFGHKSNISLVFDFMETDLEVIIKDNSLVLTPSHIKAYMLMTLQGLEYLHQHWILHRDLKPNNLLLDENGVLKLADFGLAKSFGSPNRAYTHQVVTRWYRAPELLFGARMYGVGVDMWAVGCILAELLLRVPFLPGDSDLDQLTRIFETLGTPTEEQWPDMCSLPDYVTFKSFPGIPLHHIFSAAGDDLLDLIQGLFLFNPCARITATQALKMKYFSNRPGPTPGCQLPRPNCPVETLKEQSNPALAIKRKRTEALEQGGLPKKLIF
T1 sequence (P51946 whole entry partner): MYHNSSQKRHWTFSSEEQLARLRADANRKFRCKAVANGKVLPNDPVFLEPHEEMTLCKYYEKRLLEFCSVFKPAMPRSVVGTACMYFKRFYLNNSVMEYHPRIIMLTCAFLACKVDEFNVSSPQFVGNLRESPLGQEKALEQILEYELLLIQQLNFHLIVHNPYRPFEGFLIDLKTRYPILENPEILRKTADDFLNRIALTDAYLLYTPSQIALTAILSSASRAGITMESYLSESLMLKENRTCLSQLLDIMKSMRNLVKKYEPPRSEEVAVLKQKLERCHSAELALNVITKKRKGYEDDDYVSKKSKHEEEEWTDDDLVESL
T1 sequence (P51948 whole entry partner): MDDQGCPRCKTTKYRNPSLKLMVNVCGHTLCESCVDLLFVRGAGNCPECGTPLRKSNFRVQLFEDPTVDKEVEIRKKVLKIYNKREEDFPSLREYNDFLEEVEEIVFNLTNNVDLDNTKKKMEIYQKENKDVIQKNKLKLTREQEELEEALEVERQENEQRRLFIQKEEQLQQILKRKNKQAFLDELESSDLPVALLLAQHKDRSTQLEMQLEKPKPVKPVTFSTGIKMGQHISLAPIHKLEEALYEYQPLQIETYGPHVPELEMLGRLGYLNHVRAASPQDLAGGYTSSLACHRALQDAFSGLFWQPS
Procedure: The CKIδ, CKIα, CDK7, and ERK2 kinase assays were performed on 384-well plates (10 µl volume). The reaction mixture was as follows: for CKIδ, 2 ng/µl CKIδ (Millipore, 14-520), 50 µM peptide substrate RKKKAEpSVASLTSQCSYSS corresponding to human PER2 Lys659-Ser674 [47], and CKI buffer (40 mM Tris, 10 mM MgCl2, 0.5 mM DTT, 0.1 mg/ml BSA, pH 7.5); for CKIα, 1 ng/µl CKIα (Invitrogen, PV3850), 50 µM CKI peptide substrate (Anaspec, 60547-1), and CKI buffer; for CDK7, 5 ng/µl CDK7 (Millipore, 14-476), 100 µM Cdk7/9 peptide substrate (Millipore, 12-526), and CKI buffer; for ERK2, 1.5 ng/µl ERK2 (Millipore, 14-550), 0.8 µg/µl MBP (Millipore, 13-104), and ERK buffer (50 mM Tris, 10 mM MgCl2, 0.5 mM DTT, 1 mM EGTA, pH 7.5). Five hundred nl of compound was added to the mixture (final 5% DMSO), and the reaction was started by adding ATP (final 5 µM). After incubation at 30°C for 3h, 10 µl of Kinase-Glo Luminescent Kinase Assay reagent (Promega) was added, and the luminescence was detected to determine remaining ATP amount. […] IC50 value was obtained by using Prism software (GraphPad Software).

Bmal1-dLuc U2OS cells [2] = assay: Time-course assay of endogenous PER1 abundance with parallel luminescence rhythms; format: cell-based, human; conditions: for Period of Bmal1-dLuc luminescence rhythm: control 0 µM 26 h; for Time of second trough of Bmal1-dLuc luminescence rhythm: control 0 µM 34 h; for Time of second peak of PER1 protein rhythm: control 0 µM 40 h
Procedure: Bmal1-dLuc U2OS cells were plated onto 6-well-plates (2.0×10^5 cells/well). After 2 d, the medium was replaced with 2 ml explant medium containing 0, 3, or 9 µM longdaysin. The plate was covered with film and kept at 36°C. At indicated time points, the cells were collected with ice-cold PBS and stored at −80°C. Then the cell pellets were homogenized in SDS sample buffer and analyzed by Western blotting with anti-PER1 antibody (Cosmo Bio, KAL-KI044) or anti-α-tubulin antibody. In parallel, luminescence rhythms of the cells plated on 35 mm dishes were recorded with LumiCycle luminometer at 36°C.

SCN explants = assay: Circadian period in SCN explants from mPer2Luc knockin mice; format: cell-based, mouse; conditions: 0 to 9 µM
Procedure: Explants of lung and SCN were dissected from mPer2^Luc knockin mice and cultured in explant medium as described previously. The medium was changed every week with increasing concentration of longdaysin each time (from 0 to 9 µM, final 0.7% DMSO). The luminescence was recorded every 10 min with LumiCycle luminometer (Actimetrics), and the period parameter was obtained by using LumiCycle Analysis software (Actimetrics).

CKIδ = CKIδ (Homo sapiens, UniProt P48730); assay: PER2-LUC degradation assay, CKIδ; format: cell-based; conditions: HEK293T, 0 to 20 µM, 24 h
Chain of CKIδ (P48730 whole entry, species assumed): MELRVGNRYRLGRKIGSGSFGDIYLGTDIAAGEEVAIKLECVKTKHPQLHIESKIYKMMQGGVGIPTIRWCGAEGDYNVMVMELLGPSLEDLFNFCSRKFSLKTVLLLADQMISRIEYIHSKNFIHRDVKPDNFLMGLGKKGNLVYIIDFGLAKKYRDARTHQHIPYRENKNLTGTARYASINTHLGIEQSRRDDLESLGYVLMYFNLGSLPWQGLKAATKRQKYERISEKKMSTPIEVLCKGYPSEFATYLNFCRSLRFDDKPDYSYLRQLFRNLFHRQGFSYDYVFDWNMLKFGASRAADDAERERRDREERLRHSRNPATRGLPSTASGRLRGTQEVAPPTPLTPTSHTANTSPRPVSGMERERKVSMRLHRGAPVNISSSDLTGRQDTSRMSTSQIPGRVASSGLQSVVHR

Bmal1-dLuc U2OS cells [3] = assay: U2OS cell-based circadian assay (Bmal1-dLuc luminescence rhythms); design: species or system human
Procedure: The compound screen was done with the high-throughput circadian assay system as described previously. In brief, Bmal1-dLuc U2OS cells were suspended in the culture medium (DMEM supplemented with 10% fetal bovine serum, 0.29 mg/ml L-glutamine, 100 units/ml penicillin, and 100 µg/ml streptomycin) and plated onto 384-well white solid-bottom plates at 20 µl (2,000 cells) per well. After 2 d, 50 µl of the explant medium (DMEM supplemented with 2% B27, 10 mM HEPES, 0.38 mg/ml sodium bicarbonate, 0.29 mg/ml L-glutamine, 100 units/ml penicillin, 100 µg/ml streptomycin, 0.1 mg/ml gentamicin, and 1 mM luciferin, pH 7.2) was dispensed to each well, followed by the application of 500 nl of compounds (dissolved in DMSO; final 0.7% DMSO). The plate was covered with an optically clear film and set to luminescence monitoring system equipped with a CCD imager (ViewLux, Perkin Elmer). The luminescence was recorded every 2 h for 3–4 days. In follow-up studies, the luminescence was recorded every 100 min by using a microplate reader (Infinite M200, Tecan). The period parameter was obtained from the luminescence rhythm by curve fitting program CellulaRhythm or MultiCycle (Actimetrics), both of which gave similar results.

[4] = Bmal1-dLuc U2OS cells, from Figure 1B

Compound: CC(C)n1cnc2c(NCc3cccc(C(F)(F)F)c3)ncnc21 [Longdaysin, 9-isopropyl-N-(3-(trifluoromethyl)benzyl)-9H-purin-6-amine]
- Inhibition of CKIα and CKIδ effects on PER1 degradation ([1]; 10 µM): partially inhibited
- Inhibition of CKIα and CKIδ effects on PER1 degradation ([1]; 20 µM): strongly inhibited
- IC50 (CDK7): 29 µM
- Period of Bmal1-dLuc luminescence rhythm (Bmal1-dLuc U2OS cells [2]; 3 µM): 32 h
- Time of second trough of Bmal1-dLuc luminescence rhythm (Bmal1-dLuc U2OS cells [2]; 3 µM): 38 h
- Time of second peak of PER1 protein rhythm (Bmal1-dLuc U2OS cells [2]; 3 µM): 40 to 46 h
- Period of Bmal1-dLuc luminescence rhythm (Bmal1-dLuc U2OS cells [2]; 9 µM): 38 h
- Time of second trough of Bmal1-dLuc luminescence rhythm (Bmal1-dLuc U2OS cells [2]; 9 µM): 46 h
- Time of second peak of PER1 protein rhythm (Bmal1-dLuc U2OS cells [2]; 9 µM): 52 h
- Overall protein amount of endogenous PER1 (Bmal1-dLuc U2OS cells [2]; 3 or 9 µM versus 0 µM control): strongly up-regulated
- PER1 mRNA level (Bmal1-dLuc U2OS cells [2]; 3 or 9 µM, RT-qPCR): without affecting its mRNA level
- Effect on circadian period (SCN explants): dose-dependent period lengthening
- Effect on CKIδ-mediated PER2-LUC degradation (CKIδ): inhibited the CKIδ-mediated PER2-LUC degradation in a dose-dependent manner
- Period change (lengthening) (Bmal1-dLuc U2OS cells [3]; 10 µM, U2OS cells): > 10 h and 13 h
- Concentration for period change, 5 h (Bmal1-dLuc U2OS cells [3]; [4]): 1.5 µM
- Concentration for period change, 10 h (Bmal1-dLuc U2OS cells [3]; [4]): 5.7 µM
- Concentration for period change, 15 h (Bmal1-dLuc U2OS cells [3]; [4]): 13 µM
- Potency relative to compound 1 (times more potent) (Bmal1-dLuc U2OS cells [3]; period lengthening): 3 times
- Reversibility of period effect after washout (Bmal1-dLuc U2OS cells [3]; washout, U2OS cells, mouse fibroblasts, lung (Figure S2)): reversible
